Experimental data published in patent US20240279201A1, “DUAL WNT SIGNALING PATHWAY INHIBITORS AND AMPK ACTIVATORS FOR TREATMENTS OF DISEASE” (priority 2021, published 2024).

Key:
[1] = test system: Wnt/β-Catenin signaling pathway; experiment: Wnt signaling luciferase (TOPflash) reporter gene assay; assay type: cell-based; conditions: luciferase reporter gene assay; mean of three independent experiments; read-out: IC50 (nM) to inhibit the Wnt signaling activity
Source text: A dual-luciferase gene reporter assay was used to test inhibitory activities of new compounds on Wnt signaling. […] Therefore, the effects of new compounds on AMPK was examined. […]

HEK293 cells = experiment: Cytotoxicity (CC50) during the luciferase gene reporter assay; assay type: cell-based; conditions: short treatment duration of the luciferase gene reporter assay
[2] = as above; assay type: cell-based; conditions: human, HEK293 cells; short treatment duration of the luciferase gene reporter assay
physchem = conditions: water, aqueous solubility
Description: (§1) The ADMET and PK properties of YA6060 was determined.
Determination of physiochemical properties. The profiles of six selected analogs is estimated in silico, and selected Axin stabilizers are evaluated in in vitro assays: the aqueous solubility is determined using a multiscreen solubility filter plate (Millipore, Billerica, MA) coupled with LC-MS/MS, as performed for the already synthesized YA6060 analogs; the cell viability assays on selected analogs is measured using HEK293 cells; the intestinal permeability by determining the transport from the apical to the basolateral (A to B) in Caco-2 monolayers; the metabolic stability by incubating the compounds with mouse microsomes and liver tissue S9 fraction and analyzing by LC-MS/MS.

in vivo = conditions: C57/BL6, mouse, in vivo, po
Description: as §1
PK/Tox. The four selected compounds from in vitro evaluation above are subjected to PK and toxicity assessment in C57/BL6 mice. […] Compound concentrations is determined by LC/MS/MS. PK analysis is carried out on Phoenix Winnolin using non-compartmental analysis and compartment models. Compound accumulation in major tissues, including liver, kidney, heart, brain and intestine, are quantified. […] For study ii, a half number of mice per group are sacrificed immediately after the 3-week course and the remaining after a 2-week washout period to assess delayed toxicity. In toxicity studies, blood is collected upon euthanasia for liver and renal chemistries and complete blood counts, and major organs harvested and examined macro- and microscopically by veterinarian pathologists. It is expected that an understanding of PK properties, such as bioavailability, AUC, clearance, and toxic effects, such as general tolerance and specific toxicity in the liver, kidney, other major organs, and particularly Wnt-dependent tissues, such as intestine, stomach, and skin is established for these selected compounds.

[3] = test system: Wnt signaling in SW480 cells; experiment: Luciferase gene reporter (TOPflash) assay in SW480 cells; assay type: cell-based, human
[4] = test system: Wnt signaling in SW620 cells; experiment: Luciferase gene reporter (TOPflash) assay in SW620 cells; assay type: cell-based; conditions: Homo sapiens, SW-620, read-out: IC50, inhibition of Wnt signaling
HT29 cells = experiment: Viability of HT29 cells; assay type: cell-based; conditions: Homo sapiens, HT-29, read-out: IC50, cell viability
AMPK [5] = experiment: Western blotting of phosphorylated AMPK in HEK293 cells; assay type: cell-based; conditions: 100 nM, 24 h
Description: (§2) FIG. 6A-FIG. 6E illustrate the development of Axin stabilizers with dual activities of Wnt inhibition and AMPK activation. […] HEK293 cells were used. B&C: 100 nM compounds, 24 h. FIG. 6D is a table showing the activity profile of YA6060. F=bioavailability; soubility is aqueous solubility.
(§3) A dual-luciferase gene reporter assay was used to test inhibitory activities of new compounds on Wnt signaling. […] Axin is also reported to form a complex with AMPK and its upstream kinase LKB1 (FIG. 12A and FIG. 12B) to facilitate AMPK activation. Therefore, the effects of new compounds on AMPK was examined. […] YA6060 and its analogs had dual activities of potent Wnt signaling inhibition and AMPK activation, which were dependent on the levels of scaffolding protein Axin.

β-catenin = β-catenin (Homo sapiens (Human), UniProt P35222); experiment: Western blotting of β-catenin in HEK293 cells; assay type: cell-based; conditions: 100 nM, 24 h
Description: as §2, §3

Axin 1 = Axin 1 (Homo sapiens (Human), UniProt O15169); experiment: Western blotting of Axin 1 in HEK293 cells; assay type: cell-based; conditions: 100 nM, 24 h
Description: as §2, §3

[6] = test system: SW480, SW620, and HT29 cells; experiment: Colony formation assay; assay type: cell-based
Source text: FIG. 23A is an image illustrating a colony formation assay. […] The orange circle indicates cells in early apoptosis.

SW620 xenograft = SW620 xenograft in nude mice; assay type: in vivo
AMPK [7] = experiment: AMPK activation in SW620 cells (immunoblotting); assay type: cell-based
Description: HEK293 cells were stained with anti-axin-1 or DAPI and studied under fluorescence microscopy. FIG. 26B is an image illustrating enhanced AMPK phosphorylation by Axin overexpression (empty pcDNA3 vs. pcDNA3-Axin-1) in HEK293 cells. […] See FIG. 23A-FIG. 23C for Axin knockdown. […] Cells were treated for 24 h.
Treatment of compound YW2049 indicated no effects on total protein levels of AMPK and ACC in SW620 cells.
The effects of FX analogs in Axin stabilization and AMPK activation were further studied by genetic manipulation of Axin. Axin overexpression led to enhanced AMPK activation (FIG. 26A and FIG. 26B). In contrast, it has been reported that knockdown of Axin in cells and in mouse liver impairs AMPK activation. […] This timeline is consistent with the reports that Axin can form a complex with AMPK.

RPS6KA3 = RPS6KA3 (Homo sapiens (Human), UniProt P51812); experiment: Off-target kinase panel, RPS6KA3; conditions: read-out: inhibition of RPS6KA3
Chain of RPS6KA3 (P51812 whole entry, species assumed): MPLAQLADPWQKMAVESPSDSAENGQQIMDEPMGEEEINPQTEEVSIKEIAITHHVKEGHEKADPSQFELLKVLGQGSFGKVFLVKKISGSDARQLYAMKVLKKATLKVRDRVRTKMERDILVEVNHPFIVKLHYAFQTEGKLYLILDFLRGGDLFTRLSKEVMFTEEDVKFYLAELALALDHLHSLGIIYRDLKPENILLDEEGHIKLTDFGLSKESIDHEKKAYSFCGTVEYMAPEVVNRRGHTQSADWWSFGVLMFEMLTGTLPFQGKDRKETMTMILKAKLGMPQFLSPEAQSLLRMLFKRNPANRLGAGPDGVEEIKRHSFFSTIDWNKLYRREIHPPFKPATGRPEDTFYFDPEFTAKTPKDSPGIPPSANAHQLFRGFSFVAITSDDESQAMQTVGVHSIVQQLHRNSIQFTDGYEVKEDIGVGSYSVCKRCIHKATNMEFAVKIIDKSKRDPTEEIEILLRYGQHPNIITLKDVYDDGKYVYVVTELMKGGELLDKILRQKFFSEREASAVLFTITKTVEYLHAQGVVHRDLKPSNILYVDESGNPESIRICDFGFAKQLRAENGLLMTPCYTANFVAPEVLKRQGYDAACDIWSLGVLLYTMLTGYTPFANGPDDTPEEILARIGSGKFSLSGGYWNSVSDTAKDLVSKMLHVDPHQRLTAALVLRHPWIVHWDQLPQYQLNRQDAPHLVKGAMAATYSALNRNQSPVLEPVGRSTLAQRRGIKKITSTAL

SW480 cells = experiment: Mitochondrial function in SW480 cells

Row | solubility (physchem) [µg/mL] | bioavailability (in vivo) [%] | IC50 ([3]; Homo sapiens, read-out: IC50, inhibition of Wnt signaling) [nM] | IC50 [4] [nM] | IC50 (HT29 cells) [nM] | protein level of β-catenin (β-catenin) | level of Axin 1 (Axin 1) | inhibition at 1000 µM (RPS6KA3) [%] | Compound | IC50 [1] [nM] | CC50 (HEK293 cells) [nM] | CC50 [2] [nM] | extent of inhibition of Wnt signaling activity in reporter assays [3] | levels of phosphorylated AMPK (p-AMPK) (AMPK [5]) | colony formation [6] | tumor growth and tumor weight (SW620 xenograft; i.p. each day, dose-dependent) | body weight gain (SW620 xenograft; mouse, in vivo) | p-AMPK levels (AMPK [7]) | O2 consumption rate and ATP production (SW480 cells)
1 |  |  |  |  |  |  |  |  | Cc1ccccc1-n1nnc(C(=O)Nc2ccc3cc(CN4CCNCC4)ccc3n2)c1C [YA10951, 5-Methyl-N-(6-(piperazin-1-ylmethyl)quinolin-2-yl)-1-(o-tolyl)-1H-1,2,3-triazole-4-carboxamide] | 4.3 | > 92000 |  |  |  |  |  |  |  | 
2 | < 10 | 13 | 1.2 | 0.19 | 17000 | decreased | stabilizing | 39 | Cc1c(C(=O)Nc2ccc3ccccc3n2)cnn1-c1ccccc1Br [YW2065] |  |  | > 92000 | could abolish Wnt activity at high concentrations | significantly increased | inhibited the colony formation | reduced both tumor growth | not affected | increased | reduced O2 consumption rate
